Experimental data published in article PMC10620772, “Design, synthesis, and biological evaluation of new pyrimidine-5-carbonitrile derivatives as novel anti-cancer, dual EGFR^WT/COX-2 inhibitors with docking studies” (RSC Advances, 2023).

Tests used:
Assay type in all cases: cell-based, human
[1] = test system: HT29; test: NCI60 antitumor screening; details: 10 μM one-dose
[2] = test system: HL-60(TB); test: NCI60 antitumor screening; details: 10 μM one-dose
[3] = test system: SF-268; test: NCI60 antitumor screening; details: 10 μM one-dose
[4] = test system: SF-539; test: NCI60 antitumor screening; details: 10 μM one-dose
[5] = test system: SK-OV-3; test: NCI60 antitumor screening; details: 10 μM one-dose
[6] = test system: SF-295; test: NCI60 antitumor screening; details: 10 μM one-dose
[7] = test system: HCC-2998; test: NCI60 antitumor screening; details: 10 μM one-dose
[8] = test system: SN12C; test: NCI60 antitumor screening; details: 10 μM one-dose
[9] = test system: UACC-62; test: NCI60 antitumor screening; details: 10 μM one-dose
[10] = test system: U251; test: NCI60 antitumor screening; details: 10 μM one-dose
[11] = test system: NCI-H23; test: NCI60 antitumor screening; details: 10 μM one-dose
[12] = test system: NCI-H460; test: NCI60 antitumor screening; details: 10 μM one-dose
[13] = test system: IGROV1; test: NCI60 antitumor screening; details: 10 μM one-dose
[14] = test system: DU-145; test: NCI60 antitumor screening; details: 10 μM one-dose
[15] = test system: HS 578T; test: NCI60 antitumor screening; details: 10 μM one-dose
[16] = test system: TK-10; test: NCI60 antitumor screening; details: 10 μM one-dose
[17] = test system: ACHN; test: NCI60 antitumor screening; details: 10 μM one-dose
[18] = test system: RPMI-8226; test: NCI60 antitumor screening; details: 10 μM one-dose
[19] = test system: KM12; test: NCI60 antitumor screening; details: 10 μM one-dose
[20] = test system: HCT-116; test: NCI60 antitumor screening; details: 10 μM one-dose
[21] = test system: NCI-H322M; test: NCI60 antitumor screening; details: 10 μM one-dose
[22] = test system: EKVX; test: NCI60 antitumor screening; details: 10 μM one-dose
[23] = test system: SR; test: NCI60 antitumor screening; details: 10 μM one-dose
[24] = test system: NCI60 cell lines panel; test: NCI60 antitumor screening, full panel; details: 10 μM one-dose, mean over NCI60
Procedure: The National Cancer Institute (NCI), Bethesda, Maryland, United States, selected all of the novel synthesized compounds (2b–d, 3a–d and 4a–p) for in vitro antitumor screening at a single concentration of 10 μM toward the NCI60 cell lines panel covering leukaemia, non-small cell lungs, colon, central nervous system (CNS), melanoma, ovarian, renal, prostate, and breast cancer cells.[32–35] The data were reported as a mean graph of the percent growth of the treated cell lines and expressed as percentage growth inhibition (GI%) in Table 1 and ESI 1.
(2) The molar concentration of the compound responsible for total growth inhibition, also known as total growth inhibition (TGI).
Regarding subpanel selectivity toward certain cancer type, the method of determining a compound's selectivity index is to divide the full panel MG-MID (μM) value by each single subpanel. Values above six indicate high selectivity against the subpanel; moderate selectivity is denoted by values between three and six. Conversely, compounds are termed nonselective if their selectivity is less than three.[30,37]

[25] = test system: SK-MEL-28; test: NCI60 antitumor screening; details: 10 μM one-dose
[26] = test system: NCI-H522; test: NCI60 antitumor screening; details: 10 μM one-dose
[27] = test system: NCI/ADR-RES; test: NCI60 antitumor screening; details: 10 μM one-dose
[28] = test system: MCF7; test: NCI60 antitumor screening; details: 10 μM one-dose
[29] = test system: CAKI-1; test: NCI60 antitumor screening; details: 10 μM one-dose
[30] = test system: HCT-15; test: NCI60 antitumor screening; details: 10 μM one-dose
[31] = test system: OVCAR-8; test: NCI60 antitumor screening; details: 10 μM one-dose
[32] = test system: HOP-62; test: NCI60 antitumor screening; details: 10 μM one-dose
[33] = test system: A498; test: NCI60 antitumor screening; details: 10 μM one-dose
[34] = test system: HOP-92; test: NCI60 antitumor screening; details: 10 μM one-dose
[35] = test system: MDA-MB-435; test: NCI60 antitumor screening; details: 10 μM one-dose
[36] = test system: UACC-257; test: NCI60 antitumor screening; details: 10 μM one-dose
[37] = test system: OVCAR-3; test: NCI60 antitumor screening; details: 10 μM one-dose
[38] = test system: K-562; test: NCI60 antitumor screening; details: 10 μM one-dose
[39] = test system: RXF 393; test: NCI60 antitumor screening; details: 10 μM one-dose
[40] = test system: SW-620; test: NCI60 antitumor screening; details: 10 μM one-dose
[41] = test system: CCRF-CEM; test: NCI60 antitumor screening; details: 10 μM one-dose
[42] = test system: SK-MEL-5; test: NCI60 antitumor screening; details: 10 μM one-dose
[43] = test system: NCI-H226; test: NCI60 antitumor screening; details: 10 μM one-dose
[44] = test system: T-47D; test: NCI60 antitumor screening; details: 10 μM one-dose
[45] = test system: LOX IMVI; test: NCI60 antitumor screening; details: 10 μM one-dose
[46] = test system: UO-31; test: NCI60 antitumor screening; details: 10 μM one-dose
[47] = test system: MDA-MB-231/ATCC; test: NCI60 antitumor screening; details: 10 μM one-dose
[48] = test system: SNB-19; test: NCI60 antitumor screening; details: 10 μM one-dose
[49] = test system: OVCAR-5; test: NCI60 antitumor screening; details: 10 μM one-dose
[50] = test system: SNB-75; test: NCI60 antitumor screening; details: 10 μM one-dose
[51] = test system: 786–0; test: NCI60 antitumor screening; details: 10 μM one-dose
[52] = test system: COLO 205; test: NCI60 antitumor screening; details: 10 μM one-dose
[53] = test system: SK-MEL-2; test: NCI60 antitumor screening; details: 10 μM one-dose
[54] = test system: OVCAR-4; test: NCI60 antitumor screening; details: 10 μM one-dose
[55] = test system: M14; test: NCI60 antitumor screening; details: 10 μM one-dose
[56] = test system: A549/ATCC; test: NCI60 antitumor screening; details: 10 μM one-dose
[57] = test system: BT-549; test: NCI60 antitumor screening; details: 10 μM one-dose
[58] = test system: MOLT-4; test: NCI60 antitumor screening; details: 10 μM one-dose
[59] = test system: MDA-MB-468; test: NCI60 antitumor screening; details: 10 μM one-dose
[60] = test system: PC-3; test: NCI60 antitumor screening; details: 10 μM one-dose
[61] = test system: MALME-3M; test: NCI60 antitumor screening; details: 10 μM one-dose

N#Cc1c(-c2ccc(F)cc2)nc(SCc2ccc(F)cc2)nc1N1CCOCC1 [4b, 2-((4-Fluorobenzyl)thio)-4-(4-fluorophenyl)-6-morpholinopyrimidine-5-carbonitrile]
GI% [1]: — (GI% < 10) | GI% [2]: 15.01% | GI% [3]: 56.58% | GI% [4]: 50.95% | GI% ([4]; Table 1): — (GI value > 70%) | GI% [5]: 60.37% | GI% [6]: 63.10% | GI% [7]: 12.64% | GI% [8]: 27.12% | GI% [9]: 30.66% | GI% [10]: 52.85% | GI% [11]: 28.19% | GI% [12]: 26.13% | GI% [13]: — (GI% < 10) | GI% [14]: 22.16% | GI% ([15]; Table 1): 74.34% | GI% [16]: 22.42% | GI% [17]: 53.35% | GI% [18]: — (GI% < 10) | GI% [19]: 12.78% | GI% [20]: 33.96% | GI% [21]: 21.55% | GI% [22]: 39.92% | GI% ([23]; Table 1): — (GI value > 70%) | Mean GI% [24]: 34.42% | GI% [25]: 14.16% | GI% [26]: 45.02% | GI% [27]: 36.47% | GI% [28]: 36.26% | GI% [29]: 69.32% | GI% [30]: 20.05% | GI% [31]: 45.16% | GI% ([32]; Table 1): 75.65% | GI% [33]: 28.08% | GI% [34]: 65.67% | GI% [35]: — (GI% < 10) | GI% [36]: 22.89% | GI% [37]: 24.80% | GI% [38]: 16.20% | GI% ([38]; Table 1): — (GI value > 70%) | GI% [39]: 58.43% | GI% ([39]; Table 1): — (GI value > 70%) | GI% [40]: 14.48% | GI% [41]: 12.89% | GI% [42]: 25.68% | GI% [43]: 51.64% | GI% ([43]; Table 1): — (GI value > 70%) | GI% [44]: 26.75% | GI% [45]: 23.57% | GI% [46]: 13.97% | GI% [47]: 49.52% | GI% [48]: 56.32% | GI% [49]: 16.89% | GI% ([50]; Table 1): 82.51% | GI% ([51]; Table 1): 75.34% | GI% [52]: — (GI% < 10) | GI% [53]: 21.29% | GI% [54]: 39.53% | GI% ([54]; Table 1): — (GI value > 70%) | GI% [55]: — (GI% < 10) | GI% [56]: 31.03% | GI% [57]: 35.72% | GI% [58]: — (GI% < 10) | GI% [59]: 37.89% | GI% [60]: 28.37% | GI% [61]: 41.38%

N#Cc1c(-c2ccc(F)cc2)nc(SCc2ccccc2)nc1N1CCOCC1 [4a, 2-(Benzylthio)-4-(4-fluorophenyl)-6-morpholinopyrimidine-5-carbonitrile]
GI% [1]: — (GI% < 10) | GI% [2]: 31.31% | GI% [3]: — (GI% < 10) | GI% [4]: 16.91% | GI% [5]: — (GI% < 10) | GI% [6]: — (GI% < 10) | GI% [7]: — (GI% < 10) | GI% [8]: — (GI% < 10) | GI% [9]: 13.24% | GI% [10]: — (GI% < 10) | GI% [11]: — (GI% < 10) | GI% [12]: — (GI% < 10) | GI% [13]: — (GI% < 10) | GI% [14]: — (GI% < 10) | GI% [15]: 19.87% | GI% [16]: — (GI% < 10) | GI% [17]: — (GI% < 10) | GI% [18]: — (GI% < 10) | GI% [19]: — (GI% < 10) | GI% [20]: 10.37% | GI% [21]: — (GI% < 10) | GI% [22]: — (GI% < 10) | GI% [23]: — (GI% < 10) | Mean GI% [24]: — (GI% < 10) | GI% [25]: — (GI% < 10) | GI% [26]: 16.81% | GI% [27]: 10.32% | GI% [28]: — (GI% < 10) | GI% [29]: — (GI% < 10) | GI% [30]: — (GI% < 10) | GI% [31]: 21.20% | GI% [32]: — (GI% < 10) | GI% [33]: — (GI% < 10) | GI% [34]: 15.08% | GI% [35]: — (GI% < 10) | GI% [36]: — (GI% < 10) | GI% [37]: — (GI% < 10) | GI% [38]: 16.46% | GI% [39]: — (GI% < 10) | GI% [40]: — (GI% < 10) | GI% [41]: — (GI% < 10) | GI% [42]: — (GI% < 10) | GI% [43]: — (GI% < 10) | GI% [44]: 15.89% | GI% [45]: — (GI% < 10) | GI% [46]: — (GI% < 10) | GI% [47]: 10.65% | GI% [48]: — (GI% < 10) | GI% [49]: — (GI% < 10) | GI% [50]: — (GI% < 10) | GI% [51]: — (GI% < 10) | GI% [52]: — (GI% < 10) | GI% [53]: — (GI% < 10) | GI% [54]: — (GI% < 10) | GI% [55]: — (GI% < 10) | GI% [56]: — (GI% < 10) | GI% [57]: 19.15% | GI% [58]: — (GI% < 10) | GI% [59]: — (GI% < 10) | GI% [60]: — (GI% < 10) | GI% [61]: — (GI% < 10)
